Consider ten compounds from ChEMBL document CHEMBL4680361, “Degradation of Janus Kinase for Potential Application in Immune Response Therapeutics” (ACS Med Chem Lett, 2021).

Structures are written as SMILES. Calls of active or inactive are those of the source. The rule behind the calls is not given here.

Broadly, the IC50 is the concentration that inhibits the measured activity by half. What is called DC50 is the concentration giving 50% degradation.

One data set concerns RS4-11. Nature of the data set: Cytotoxicity against human RS4-11 cells assessed as reduction in cell viability measured after 3 days by CellTiter-Glo assay. In kind it is functional, cell-based. Conditions: RS4-11, 72 h. A general note: In ATP-based viability assays light output follows the ATP content of the culture.
Data set [1] concerns the target Protein cereblon/Tyrosine-protein kinase JAK1 (Homo sapiens, UniProt P23458+Q96SW2). Nature of the data set: Protac activity at CRBN/JAK1 in human RS4-11 cells assessed as degradation of JAK1 measured after 24 hrs by immunoblotting analysis. The format is cell-based.
The subject of a further data set is IMR-90. Nature of the data set: Cytotoxicity against human IMR-90 cells assessed as effect on cell viability at 10^-10 to 10^-5 M measured after 3 days by CellTiter-Glo assay. The format is cell-based. Conditions: imr-90, 72 h, dose 0.0001-10 µM, time 3 day.
In another data set the test system is HaCaT. Nature of the data set: Cytotoxicity against human HaCaT cells assessed as effect on cell viability at 10^-10 to 10^-5 M measured after 3 days by CellTiter-Glo assay. Conditions: 72 h, dose 0.0001-10 µM, time 3 day. In kind it is cell-based.
For data set [2], the system named is Protein cereblon/Tyrosine-protein kinase JAK2 (Homo sapiens), O60674+Q96SW2 [UNDEFINED MUTATION]. Nature of the data set: Protac activity at CRBN/JAK2 V617 mutant in human HEL cells assessed as decrease in JAK2 V617 mutant protein level at < 60 nM measured after 24 hrs by immunoblotting analysis. In kind it is cell-based. Conditions: dose nM <60, time 24.0 hrs. For orientation: A western blot detects proteins with antibodies after separation by electrophoresis.
Protein cereblon/Tyrosine-protein kinase JAK2 (Homo sapiens), O60674+Q96SW2 [UNDEFINED MUTATION], sequence (O60674 whole entry, looked up, stated change not applied): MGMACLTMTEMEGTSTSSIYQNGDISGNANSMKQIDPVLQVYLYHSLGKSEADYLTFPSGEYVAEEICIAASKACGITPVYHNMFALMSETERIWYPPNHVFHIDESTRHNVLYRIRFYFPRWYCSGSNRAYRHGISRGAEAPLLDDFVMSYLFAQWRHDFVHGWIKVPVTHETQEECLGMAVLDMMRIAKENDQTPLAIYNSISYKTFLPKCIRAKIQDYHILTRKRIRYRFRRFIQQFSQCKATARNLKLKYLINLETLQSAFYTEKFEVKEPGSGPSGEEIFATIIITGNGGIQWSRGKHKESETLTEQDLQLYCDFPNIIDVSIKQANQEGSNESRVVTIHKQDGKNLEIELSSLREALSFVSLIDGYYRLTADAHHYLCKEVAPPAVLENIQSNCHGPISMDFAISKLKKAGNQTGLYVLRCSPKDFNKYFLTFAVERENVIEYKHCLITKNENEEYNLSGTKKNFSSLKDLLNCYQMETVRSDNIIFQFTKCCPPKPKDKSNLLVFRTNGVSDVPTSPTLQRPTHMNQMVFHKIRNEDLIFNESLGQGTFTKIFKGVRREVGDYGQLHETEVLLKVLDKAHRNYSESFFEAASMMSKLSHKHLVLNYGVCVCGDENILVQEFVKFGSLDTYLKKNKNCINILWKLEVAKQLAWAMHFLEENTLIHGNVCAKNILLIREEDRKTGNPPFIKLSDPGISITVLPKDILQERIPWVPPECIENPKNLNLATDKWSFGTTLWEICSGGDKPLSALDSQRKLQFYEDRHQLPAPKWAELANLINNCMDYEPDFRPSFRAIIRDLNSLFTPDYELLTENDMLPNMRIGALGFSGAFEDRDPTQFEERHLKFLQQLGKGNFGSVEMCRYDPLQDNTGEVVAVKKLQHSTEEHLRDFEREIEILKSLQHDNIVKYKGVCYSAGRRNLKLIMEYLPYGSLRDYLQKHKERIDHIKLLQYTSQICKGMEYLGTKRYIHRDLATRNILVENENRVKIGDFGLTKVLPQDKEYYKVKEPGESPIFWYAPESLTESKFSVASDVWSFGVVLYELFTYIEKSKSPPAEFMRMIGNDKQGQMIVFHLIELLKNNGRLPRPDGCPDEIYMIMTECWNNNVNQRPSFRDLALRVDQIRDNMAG
Protein cereblon/Tyrosine-protein kinase JAK2 (Homo sapiens), O60674+Q96SW2 [UNDEFINED MUTATION], sequence (Q96SW2 whole entry, looked up, stated change not applied): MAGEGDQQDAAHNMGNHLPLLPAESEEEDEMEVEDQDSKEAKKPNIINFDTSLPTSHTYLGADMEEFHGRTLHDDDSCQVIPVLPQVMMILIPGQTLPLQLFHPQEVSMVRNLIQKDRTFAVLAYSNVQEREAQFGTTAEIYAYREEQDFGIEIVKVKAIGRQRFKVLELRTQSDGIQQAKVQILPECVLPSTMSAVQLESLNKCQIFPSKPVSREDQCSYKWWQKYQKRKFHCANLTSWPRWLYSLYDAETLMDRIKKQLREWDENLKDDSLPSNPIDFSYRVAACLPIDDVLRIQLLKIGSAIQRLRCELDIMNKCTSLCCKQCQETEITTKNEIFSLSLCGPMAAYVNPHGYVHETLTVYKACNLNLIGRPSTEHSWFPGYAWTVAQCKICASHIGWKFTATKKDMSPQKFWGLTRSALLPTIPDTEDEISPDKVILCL

Protein cereblon/Tyrosine-protein kinase JAK1, sequence (P23458 whole entry): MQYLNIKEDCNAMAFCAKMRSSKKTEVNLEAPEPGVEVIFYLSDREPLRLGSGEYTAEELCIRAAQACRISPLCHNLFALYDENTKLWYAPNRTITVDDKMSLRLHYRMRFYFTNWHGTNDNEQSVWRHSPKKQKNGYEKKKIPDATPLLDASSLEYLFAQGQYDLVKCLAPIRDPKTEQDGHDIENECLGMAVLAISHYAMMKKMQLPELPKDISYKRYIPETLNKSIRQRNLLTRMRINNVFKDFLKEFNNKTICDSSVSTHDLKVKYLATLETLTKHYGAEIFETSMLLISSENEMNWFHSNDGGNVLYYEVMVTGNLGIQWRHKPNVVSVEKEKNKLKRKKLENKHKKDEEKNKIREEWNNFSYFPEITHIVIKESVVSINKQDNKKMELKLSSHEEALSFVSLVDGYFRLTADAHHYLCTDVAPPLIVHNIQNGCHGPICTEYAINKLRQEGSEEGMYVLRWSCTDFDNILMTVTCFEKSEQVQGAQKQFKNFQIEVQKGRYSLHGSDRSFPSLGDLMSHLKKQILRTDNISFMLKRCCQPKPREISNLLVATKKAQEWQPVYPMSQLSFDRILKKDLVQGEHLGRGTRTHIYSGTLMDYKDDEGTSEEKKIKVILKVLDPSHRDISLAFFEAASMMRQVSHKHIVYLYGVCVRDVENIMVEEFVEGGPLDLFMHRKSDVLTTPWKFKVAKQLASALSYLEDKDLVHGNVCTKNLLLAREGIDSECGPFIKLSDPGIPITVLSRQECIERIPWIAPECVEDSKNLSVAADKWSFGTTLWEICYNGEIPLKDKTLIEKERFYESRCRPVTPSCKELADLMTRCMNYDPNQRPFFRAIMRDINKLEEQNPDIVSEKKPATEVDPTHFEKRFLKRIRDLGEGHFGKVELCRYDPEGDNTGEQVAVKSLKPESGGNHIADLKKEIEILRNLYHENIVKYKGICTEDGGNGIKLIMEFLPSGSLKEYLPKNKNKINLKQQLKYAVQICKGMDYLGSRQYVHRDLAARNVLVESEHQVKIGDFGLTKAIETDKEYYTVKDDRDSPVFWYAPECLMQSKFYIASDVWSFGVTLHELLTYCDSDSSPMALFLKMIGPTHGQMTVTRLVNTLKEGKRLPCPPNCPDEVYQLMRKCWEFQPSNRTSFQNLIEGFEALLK
Protein cereblon/Tyrosine-protein kinase JAK1, sequence (Q96SW2 whole entry): as the sequence (Q96SW2 whole entry, looked up, stated change not applied) above

As to `O=C1CCC(N2C(=O)c3ccc(NCCCCCCCC(=O)N4CCC(n5cc(-c6cnc7cccc(-c8cc(F)c(CN9CCOCC9)c(F)c8)c7n6)cn5)CC4)cc3C2=O)C(=O)N1` (configuration not stated), the half-inhibitory concentration (IC50) in the data set with RS4-11 was 54.4 nM.
On to `O=C1CCC(N2C(=O)c3ccc(NCCCCC(=O)N4CCC(n5cc(-c6cnc7cccc(-c8cc(F)c(CN9CCOCC9)c(F)c8)c7n6)cn5)CC4)cc3C2=O)C(=O)N1` (configuration not stated), for which the IC50 with RS4-11 amounted to 13.8 nM.
Turning to `O=C1CCC(N2C(=O)c3ccc(NCCCCCC(=O)N4CCC(n5cc(-c6cnc7cccc(-c8cc(F)c(CN9CCOCC9)c(F)c8)c7n6)cn5)CC4)cc3C2=O)C(=O)N1` (configuration not stated), in the data set on RS4-11, the 50% inhibitory concentration (IC50) amounted to 2.03 nM. In addition, the DC50 in data set [1] was less than 5 nM. Besides, the Activity result in the data set with IMR-90 and with HaCaT was “Non-Toxic” throughout.
Turning to `CS(=O)(=O)c1ccc(-c2cccc3nc(Nc4ccc(N5CCN(C(=O)CCCCCOc6ccc7c(c6)CN(C6CCC(=O)NC6=O)C7=O)CC5)cc4)nn23)cc1` (configuration not stated), the half-maximal inhibitory concentration (IC50) in the data set with RS4-11 was 32.8 nM.
The same measure, in the same setting: the value for `CS(=O)(=O)c1ccc(-c2cccc3nc(Nc4ccc(N5CCN(C(=O)CCCCCNc6ccc7c(c6)C(=O)N(C6CCC(=O)NC6=O)C7=O)CC5)cc4)nn23)cc1` (configuration not stated) was 7.3 nM; that for `O=C1CCC(N2Cc3ccc(OCCCCCCC(=O)N4CCC(n5cc(-c6cnc7cccc(-c8cc(F)c(CN9CCOCC9)c(F)c8)c7n6)cn5)CC4)cc3C2=O)C(=O)N1` (configuration not stated) was 3.8 nM; that for `O=C1CCC(N2Cc3cc(OCCCCCC(=O)N4CCC(n5cc(-c6cnc7cccc(-c8cc(F)c(CN9CCOCC9)c(F)c8)c7n6)cn5)CC4)ccc3C2=O)C(=O)N1` (configuration not stated) was 3.6 nM.
As to `CS(=O)(=O)c1ccc(-c2cccc3nc(Nc4ccc(N5CCN(CC(=O)NCCCCCCCNc6ccc7c(c6)C(=O)N(C6CCC(=O)NC6=O)C7=O)CC5)cc4)nn23)cc1` (configuration not stated), in the data set with RS4-11, the half-maximal inhibitory concentration (IC50) was 63.5 nM.
Turning to `CS(=O)(=O)c1ccc(-c2cccc3nc(Nc4ccc(N5CCN(C(=O)CCCCCCOc6ccc7c(c6)C(=O)N(C6CCC(=O)NC6=O)C7)CC5)cc4)nn23)cc1` (configuration not stated), in the data set with RS4-11, the half-inhibitory concentration (IC50) is 5.4 nM.
For the compound `CS(=O)(=O)c1ccc(-c2cccc3nc(Nc4ccc(N5CCN(CC(=O)NCCCCCCCCNc6ccc7c(c6)C(=O)N(C6CCC(=O)NC6=O)C7=O)CC5)cc4)nn23)cc1` (configuration not stated), the IC50 in the data set on RS4-11 came out at 8.45 nM. The outcome in data set [2] was Active. In addition, the DC50 in data set [1] is less than 35 nM. For the same compound, the Activity result in the data set on IMR-90 and with HaCaT was “Non-Toxic” in each case.
